Molecules are shown by their SMILES.

Experiment [1] has as its target T1, Protoporphyrinogen IX oxidase (Zea mays, UniProt Q9FYV8).
T1 sequence (Q9FYV8 whole entry): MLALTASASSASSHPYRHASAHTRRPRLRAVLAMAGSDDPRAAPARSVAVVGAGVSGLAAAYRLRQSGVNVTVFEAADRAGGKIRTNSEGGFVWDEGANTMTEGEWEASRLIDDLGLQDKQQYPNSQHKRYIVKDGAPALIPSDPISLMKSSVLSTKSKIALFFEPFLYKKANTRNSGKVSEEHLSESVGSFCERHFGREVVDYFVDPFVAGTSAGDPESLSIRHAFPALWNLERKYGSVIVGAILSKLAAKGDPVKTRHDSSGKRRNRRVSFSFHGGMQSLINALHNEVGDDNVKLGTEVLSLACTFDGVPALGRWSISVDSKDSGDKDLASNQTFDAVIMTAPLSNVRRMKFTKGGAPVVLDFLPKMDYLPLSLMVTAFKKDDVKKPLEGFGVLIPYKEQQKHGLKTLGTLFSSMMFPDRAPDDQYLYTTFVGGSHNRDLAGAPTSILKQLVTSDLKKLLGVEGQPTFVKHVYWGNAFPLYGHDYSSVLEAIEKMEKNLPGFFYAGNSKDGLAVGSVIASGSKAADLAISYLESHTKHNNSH
The experiment is described as follows: Inhibition of Protoporphyrinogen IX oxidase in Zea mays cv. Anjou (maize) seedlings etioplasts homogenates assessed as reduction in protoporphyrin IX production by fluorescence spectroscopy. Particulars: read-out: pI50 (converted).

Experiment [2] relates to Scenedesmus acutus. The experiment can be described thus: Peroxidizing phytotoxicity against Scenedesmus acutus assessed as ethane production after 20 hr by gas chromatography. In kind it is functional, organism-based. The settings on record: read-out: pI50 (converted).
Experiment [3] addresses T2, Protoporphyrinogen IX oxidase (UniProt C1N1S5).
T2 sequence (whole entry): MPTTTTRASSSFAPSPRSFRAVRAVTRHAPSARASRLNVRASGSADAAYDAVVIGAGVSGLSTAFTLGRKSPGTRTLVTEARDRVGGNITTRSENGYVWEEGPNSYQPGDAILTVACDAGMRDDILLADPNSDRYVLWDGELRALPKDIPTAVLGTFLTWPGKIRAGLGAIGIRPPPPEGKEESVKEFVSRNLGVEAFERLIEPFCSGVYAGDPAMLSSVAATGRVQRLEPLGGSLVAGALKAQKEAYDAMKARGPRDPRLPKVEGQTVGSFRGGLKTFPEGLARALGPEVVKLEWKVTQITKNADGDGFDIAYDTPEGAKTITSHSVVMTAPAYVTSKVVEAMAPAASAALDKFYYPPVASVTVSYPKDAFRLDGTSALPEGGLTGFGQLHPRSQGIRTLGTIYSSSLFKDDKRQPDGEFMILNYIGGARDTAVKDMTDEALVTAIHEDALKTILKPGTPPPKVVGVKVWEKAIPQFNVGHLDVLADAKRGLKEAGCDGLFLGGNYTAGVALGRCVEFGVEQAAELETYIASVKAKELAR
The experiment is described as follows: Inhibition of Protoporphyrinogen IX oxidase in Scenedesmus acutus assessed as protoporphyrin IX level per ml of packed cell volume by HPLC. Further: test concentration or dose not given here.

The subject of experiment [4] is Scenedesmus acutus. The experiment is described as follows: Phytotoxicity against Scenedesmus acutus assessed as reduction in chlorophyll content by spectrophotometry. It counts as functional, organism-based. Particulars: read-out: pI50 (converted).
For experiment [5], the system named is Scenedesmus acutus. The experiment can be described thus: Growth inhibition of Scenedesmus acutus assessed as reduction in packed cell volume. In kind it is functional, organism-based. The settings on record: read-out: pI50 (converted).

In the case of `S=c1n(-c2ccc(Cl)cc2)c(=S)n2n1CCCC2`, the IC50 in experiment [1] was 6.76 nM; in the experiment with Scenedesmus acutus [2] it was 50.1 nM; in the experiment with Scenedesmus acutus [4], 43.7 nM; in the experiment on Scenedesmus acutus [5], 61.7 nM. Also, the Activity in experiment [3] worked out at 50.3 nmol.
For `Cc1cc(Cl)ccc1-n1c(=S)n2n(c1=S)CCCC2` the same measures were 151 nM, 85.1 nM, 85.1 nM, 105 nM and 63.3 nmol.
For `CCOc1cc(Oc2ccc(C(F)(F)F)cc2Cl)ccc1[N+](=O)[O-]` [OXYFLUORFEN] the same measures were 7.94 nM, 41.7 nM, 21.4 nM, 30.9 nM and 65.6 nmol.
On the same counts, the results for `C#CCOc1cc(-n2c(=S)n3n(c2=S)CCCC3)c(F)cc1Cl` are 8.91 nM, 7.24 nM, 1.7 nM, 2.04 nM and 87.2 nmol.
Consider `S=c1n(-c2ccccc2)c(=S)n2n1CCCC2`, for which the IC50 is 3240 nM in experiment [1], 2040 nM with Scenedesmus acutus [2], 6310 nM with Scenedesmus acutus [4] and 7940 nM with Scenedesmus acutus [5]. The Activity in experiment [3] stood at 13.2 nmol.
On the same counts, the results for `COC(=O)CSc1cc(/N=c2\sc(=S)n3n2CCCC3)c(F)cc1Cl` are 120 nM, 389 nM, 191 nM, 245 nM and 34.1 nmol.
As to `S=c1s/c(=N\c2ccc(Br)cc2)n2n1CCCC2`, the IC50 is 741 nM in experiment [1], 550 nM in the experiment with Scenedesmus acutus [2], 148 nM with Scenedesmus acutus [4] and 162 nM in the experiment with Scenedesmus acutus [5]. Moreover, the Activity in experiment [3] is 25.3 nmol.
As to `S=c1s/c(=N\c2ccccc2)n2n1CCCC2`, the IC50 was above 31600 nM in experiment [1], 4370 nM in the experiment on Scenedesmus acutus [2], 13800 nM in the experiment with Scenedesmus acutus [4] and 14100 nM in the experiment on Scenedesmus acutus [5]. The Activity in experiment [3] came to 10.8 nmol.
For `S=c1n(-c2ccc(OCc3ccc(Cl)cc3)cc2)c(=S)n2n1CCCC2` the same measures were 12 nM, 22.9 nM, 15.5 nM, 17.4 nM and 80.3 nmol.
For `S=c1s/c(=N\c2ccc(Cl)cc2)n2n1CCCC2` the same measures were 1100 nM, 550 nM, 234 nM, 339 nM and 20.3 nmol.
For `Cc1cc(Cl)ccc1/N=c1\sc(=S)n2n1CCCC2`, the IC50 in experiment [1] is 7590 nM; with Scenedesmus acutus [2] it was 513 nM; in the experiment with Scenedesmus acutus [4], 275 nM; in the experiment on Scenedesmus acutus [5] it was 457 nM. In addition, in experiment [3], the Activity turned out to be 20.3 nmol.
On the same counts, the results for `S=c1n(-c2ccc(Br)cc2)c(=S)n2n1CCCC2` are 7.24 nM, 46.8 nM, 37.2 nM, 64.6 nM and 67.9 nmol.
As for `Fc1cc(Cl)ccc1-n1c(=S)n2n(c1=S)CCCC2`, the IC50 in experiment [1] is 7.24 nM; in the experiment with Scenedesmus acutus [2], 27.5 nM; in the experiment with Scenedesmus acutus [4] it was 18.2 nM; in the experiment with Scenedesmus acutus [5] it was 23.4 nM. Further, in experiment [3], the Activity was 70.3 nmol.
On the same counts, the results for `CC(C)Oc1cc(/N=c2\sc(=S)n3n2CCCC3)c(F)cc1Cl` are 617 nM, 166 nM, 11.2 nM, 13.8 nM and 30.7 nmol.
In the case of `COC(=O)CSc1cc(-n2c(=S)n3n(c2=S)CCCC3)c(F)cc1Cl`, the figures for the IC50 in the experiment with Scenedesmus acutus [2], in the experiment with Scenedesmus acutus [4] and in the experiment with Scenedesmus acutus [5] were 158 nM, 141 nM and 186 nM, respectively. In addition, in experiment [3], the Activity is 56 nmol.
Turning to `C#CCOc1cc(/N=c2\sc(=S)n3n2CCCC3)c(F)cc1Cl`, the IC50 in experiment [1] is 204 nM; in the experiment on Scenedesmus acutus [2], 79.4 nM; with Scenedesmus acutus [4] it was 5.5 nM; in the experiment with Scenedesmus acutus [5], 7.24 nM. In addition, the Activity in experiment [3] was 63.5 nmol.
Take `CC(C)Oc1cc(-n2c(=S)n3n(c2=S)CCCC3)c(F)cc1Cl`: the IC50 was 1.2 nM in experiment [1], 67.6 nM in the experiment with Scenedesmus acutus [2], 5.25 nM with Scenedesmus acutus [4] and 7.59 nM with Scenedesmus acutus [5]. In addition, in experiment [3], the Activity came to 60.2 nmol.
For `Fc1cc(Cl)ccc1/N=c1\sc(=S)n2n1CCCC2` the same measures were 1100 nM, 91.2 nM, 67.6 nM, 120 nM and 31.5 nmol.
For `S=c1s/c(=N\c2ccc(OCc3ccc(Cl)cc3)cc2)n2n1CCCC2`, the IC50 in experiment [1] was 813 nM; with Scenedesmus acutus [2], 120 nM; in the experiment with Scenedesmus acutus [4] it was 20 nM; with Scenedesmus acutus [5] it was 21.9 nM. In addition, the Activity in experiment [3] worked out at 30.7 nmol.

The record behind these values is ChEMBL document CHEMBL3045795, “Peroxidizing Phytotoxic Activity of 1, 3, 4-Thiadiazolidine-2-thiones and 1, 2, 4-Triazolidine-3, 5-dithiones” (J Pestic Sci, 1995).
